From US10858360B2, “Tricyclic gyrase inhibitors” (priority 2011, dated 2020)
≈ marks a conversion by molar mass, not a printed value. Like-named read-outs stand apart in the source and are kept apart here.

Tests used:
S. aureus ATCC 13709 = assay: MIC, S. aureus ATCC 13709 (Alamar Blue broth microdilution); format: cell-based; details: for MIC: Staphylococcus aureus, ATCC13709, S. aureus
E. coli ATCC 25922 = assay: MIC, E. coli ATCC 25922; format: cell-based; details: for MIC: Escherichia coli, ATCC25922, E. coli
[1] = Alamar Blue read after overnight incubation at 35° C.
[2] = S. aureus, Alamar Blue read after overnight incubation at 35° C.
[3] = E. coli, Alamar Blue read after overnight incubation at 35° C.

SMILES | MIC (S. aureus ATCC 13709; [1]) | MIC (E. coli ATCC 25922; [1]) | MIC Sa (S. aureus ATCC 13709; [2]) | MIC Ec (E. coli ATCC 25922; [3]) | also measured
CNc1cc(F)cc2c1[nH]c1nc(Oc3cncnc3)nc(N3CCC4(CCNC4)C3)c12 (centres unmarked) [4.033] | ≤ 0.5 µg/mL | 4 µg/mL (≈ 9.21 µM) | – | – | –
CNc1cc(F)cc2c1[nH]c1nc(Oc3cnc(C)nc3)nc(NCCCN)c12 [4.108] | – | – | 4 µg/mL (≈ 10.1 µM) | >16 µg/mL | –
CNc1cc(F)cc2c1[nH]c1nc(Oc3cnc(N4CC(S(=O)(=O)CC5CC5)C4)nc3)nc(N3C[C@H](N)C4(CC4)C3)c12 [4.338] | – | – | ≤0.5 µg/mL | 2 µg/mL (≈ 3.37 µM) | –
CNc1cc(F)cc2c1[nH]c1nc(Oc3ccc4sc(N)nc4c3)nc(N3C[C@H]4CC[C@@H](N)[C@H]4C3)c12 [4.335] | ≤ 0.5 µg/mL | 4 µg/mL (≈ 7.93 µM) | – | – | –
CNc1cc(F)cc2c1[nH]c1nc(Oc3cncc(F)c3)nc(N3CCC4(C[C@H]4N)C3)c12 (some centres unmarked) [4.062] | ≤ 0.5 µg/mL | ≤ 0.5 µg/mL | – | – | –
CNc1cc(F)cc2c1[nH]c1nc(Oc3cnc(C)nc3)nc(N3CC(NC(=O)CN)C4(CC4)C3)c12 (centres unmarked) [4.085] | – | – | ≤0.5 µg/mL | 2 µg/mL (≈ 4.07 µM) | –
CNc1cc(F)cc2c1[nH]c1nc(Oc3cnc(C)nc3)nc(N3CC4CC(N)C3C4)c12 (centres unmarked) [4.154] | – | – | 2 µg/mL (≈ 4.6 µM) | 16 µg/mL (≈ 36.8 µM) | –
CNc1cc(F)cc2c1[nH]c1nc(Oc3cnc(CC(=O)OC)nc3)nc(N3CC4C[C@@H](N)C4C3)c12 (some centres unmarked) [4.367] | ≤ 0.5 µg/mL | ≤ 0.5 µg/mL | – | – | –
CNc1cc(F)cc2c1[nH]c1nc(Oc3cncnc3)nc(N3CC4C(N)C4C3)c12 (centres unmarked) [4.010] | – | – | ≤0.5 µg/mL | ≤0.5 µg/mL | –
CNc1cc(F)cc2c1[nH]c1nc(Oc3cncnc3)nc(N3CC4CC3C4CN)c12 (centres unmarked) [4.030] | – | – | 2 µg/mL (≈ 4.76 µM) | 16 µg/mL (≈ 38.1 µM) | –
CNc1cc(F)cc2c1[nH]c1nc(Oc3cnc(C4CC4)nc3)nc(N3CCC(N)C3)c12 (centres unmarked) [4.243] | – | – | ≤0.5 µg/mL | ≤0.5 µg/mL | –
CNc1cc(F)cc2c1[nH]c1nc(Oc3cncnc3)nc(N3CC[C@@]4(C[C@H]4N)C3)c12 [4.014] | ≤ 0.5 µg/mL | 1 µg/mL (≈ 2.38 µM) | – | – | –
CNc1cccc2c1[nH]c1nc(Oc3cncnc3)nc(N3CC[C@@H](N)C3)c12 [3.4] | 0.5 µg/mL (≈ 1.33 µM) | ≤ 0.5 µg/mL | – | – | –
CNc1cc(F)cc2c1[nH]c1nc(Oc3cnc(CCO)nc3)nc(N3CC4C[C@@H](N)C4C3)c12 (some centres unmarked) [4.415] | ≤ 0.5 µg/mL | 1 µg/mL (≈ 2.15 µM) | – | – | –
CNc1cc(F)cc2c1[nH]c1nc(Oc3cnc(C4CC4)nc3)nc(N3CC(N)C4(CC4)C3)c12 (centres unmarked) [4.242] | – | – | ≤0.5 µg/mL | ≤0.5 µg/mL | –
CNc1cccc2c1[nH]c1nc(Oc3cncnc3)nc(N3CC4C(N)C4C3)c12 (centres unmarked) [3.28] | 1 µg/mL (≈ 2.57 µM) | 2 µg/mL (≈ 5.15 µM) | – | – | –

SMILES | MIC (S. aureus ATCC 13709; [1]) | MIC (E. coli ATCC 25922; [1]) | MIC Sa (S. aureus ATCC 13709; [2]) | MIC Ec (E. coli ATCC 25922; [3]) | also measured
CNc1cc(F)cc2c1[nH]c1nc(Oc3cncnc3)nc(N3CC4CCC(N)C4C3)c12 (centres unmarked) [4.016] | ≤ 0.5 µg/mL | 1 µg/mL (≈ 2.3 µM) | – | – | –
CNc1cc(F)cc2c1[nH]c1nc(Oc3cnc(C)nc3)nc(N3CC4CCC(CN)C4C3)c12 (centres unmarked) [4.112] | – | – | ≤0.5 µg/mL | 1 µg/mL (≈ 2.16 µM) | –
CNc1cccc2c1[nH]c1nc(Sc3cnc4cccnc4c3)nc(N3C[C@@H](N)C[C@H]3C)c12 [1.60] | 0.5 µg/mL (≈ 1.1 µM) | 2 µg/mL (≈ 4.38 µM) | – | – | –
CNc1cc(F)cc2c1[nH]c1nc(Oc3cnc(CO)nc3)nc(N3CC4C(N)CC4(C)C3)c12 (centres unmarked) [4.389] | – | – | ≤0.5 µg/mL | ≤0.5 µg/mL | –
CNc1cc(F)cc2c1[nH]c1nc(Oc3ccc4c(c3)C(=O)NCC4)nc(N3CCC4(CC4N)C3)c12 (centres unmarked) [4.300] | – | – | ≤0.5 µg/mL | ≤0.5 µg/mL | –
CNc1cc(F)cc2c1[nH]c1nc(Oc3cnc4cccnc4c3)nc(N3CC4CC[C@@H](N)[C@H]4C3)c12 (some centres unmarked) [4.047] | ≤ 0.5 µg/mL | ≤ 0.5 µg/mL | – | – | –
CNc1cccc2c1[nH]c1nc(Oc3cncc(C#N)c3)nc(N3C[C@@H](N)C4(CC4)C3)c12 [3.44] | 8 µg/mL (≈ 18.8 µM) | 16 µg/mL (≈ 37.5 µM) | – | – | –
CNc1cc(F)cc2c1[nH]c1nc(Oc3cnc(C#N)c(C)c3)nc(N3C[C@H](N)C4(CC4)C3)c12 [4.324] | – | – | ≤0.5 µg/mL | ≤0.5 µg/mL | –
CNc1cc(F)cc2c1[nH]c1nc(Oc3cnc(N)nc3)nc(N3CCC(CN)C3)c12 (centres unmarked) [4.176] | ≤ 0.5 µg/mL | 1 µg/mL (≈ 2.36 µM) | – | – | –
COc1cccc2c1[nH]c1nc(Oc3cnc4cccnc4c3)nc(N3CC4C(N)C4C3)c12 (centres unmarked) [2.14] | – | – | 1 µg/mL (≈ 2.28 µM) | >64 µg/mL | –
CNc1cc(F)cc2c1[nH]c1nc(Oc3cnc(SC)nc3)nc(N3CC4CCC(N)C4C3)c12 (centres unmarked) [4.200] | – | – | ≤0.5 µg/mL | ≤0.5 µg/mL | –
CNc1cc(F)c(C)c2c1[nH]c1nc(Oc3cnc(C)nc3)nc(NC3CCCCC3N)c12 (centres unmarked) [6.22] | – | – | – | – | MIC Sa (S. aureus ATCC 13709): >16 µg/mL; MIC Ec (E. coli ATCC 25922): >16 µg/mL
CNc1cc(F)cc2c1[nH]c1nc(Oc3cnc(C)nc3)nc(N3CC4C(CN)C4C3)c12 (centres unmarked) [4.106] | – | – | ≤0.5 µg/mL | 2 µg/mL (≈ 4.6 µM) | –
CNc1cc(F)cc2c1[nH]c1nc(Oc3cncnc3)nc(N3CCC(N)C3)c12 (centres unmarked) [4.007] | – | – | ≤0.5 µg/mL | ≤0.5 µg/mL | –
CCNc1cccc2c1[nH]c1nc(Sc3cnc4ccc[n+]([O-])c4c3)nc(N3CC4C(N)C4C3)c12 (centres unmarked) [1.10] | ≤ 0.5 µg/mL | 4 µg/mL (≈ 8.25 µM) | – | – | –
